# Source: patent publication US10428080B2, “TBK/IKK inhibitor compounds and uses thereof” (Merck Patent GmbH, priority 2015, dated 2019)
# Experiments:
# [1] = tested on: phosphorylation of the IRF-3 protein in MDA-MB-468 cells; test: pIRF3 immunocytochemistry cell based assay; settings: Homo sapiens; MDA-MB-468 cells, Poly(I:C) stimulation; read-out: pIRF3 IC50
# In short: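 After 2 h stimulation with Poly(I:C) (10 ug/ml), following 1 h compound pre-treatment (10-point, 3-fold dilution, top 10 uM), MDA-MB-468 cells were fixed and stained with anti-pIRF3 antibody. pIRF3 fluorescence was normalized to PI staining or cell count on an Acumen cytometer. IC50 curves were derived from this.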
# TBK1 = target: T1, TBK1 (Homo sapiens, UniProt Q9UHD2); test: TBK Biochemical Assay; settings: read-out: TBK1 IC50
# T1 sequence (Q9UHD2 1-729): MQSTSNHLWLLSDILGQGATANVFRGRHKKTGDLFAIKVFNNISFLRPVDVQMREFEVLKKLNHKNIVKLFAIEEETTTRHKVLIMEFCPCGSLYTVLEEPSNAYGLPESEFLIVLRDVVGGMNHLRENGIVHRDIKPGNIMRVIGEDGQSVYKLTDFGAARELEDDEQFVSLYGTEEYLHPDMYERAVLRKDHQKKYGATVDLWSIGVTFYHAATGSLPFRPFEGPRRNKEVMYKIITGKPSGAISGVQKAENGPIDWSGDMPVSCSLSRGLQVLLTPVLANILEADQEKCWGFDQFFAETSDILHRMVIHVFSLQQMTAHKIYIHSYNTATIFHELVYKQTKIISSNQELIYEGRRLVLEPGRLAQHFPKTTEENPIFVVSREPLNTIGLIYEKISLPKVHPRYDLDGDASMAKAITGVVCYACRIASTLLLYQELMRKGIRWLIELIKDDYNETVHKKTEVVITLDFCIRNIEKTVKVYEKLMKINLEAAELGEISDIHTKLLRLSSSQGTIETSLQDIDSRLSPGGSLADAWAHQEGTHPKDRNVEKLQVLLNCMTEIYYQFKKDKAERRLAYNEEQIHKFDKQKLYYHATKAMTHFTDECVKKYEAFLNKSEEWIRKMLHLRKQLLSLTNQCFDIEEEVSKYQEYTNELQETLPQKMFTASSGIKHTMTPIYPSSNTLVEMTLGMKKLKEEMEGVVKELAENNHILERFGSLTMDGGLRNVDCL
# In short: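 Caliper LabChip mobility-shift readout of substrate and product after 90 min of TBK1 reaction at 25° C and stop-buffer addition. Compounds tested in 1:4 serial dilution over 10 points from 30 uM final at 1% DMSO; staurosporine 10 uM final defines full inhibition.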
# IKKε = target: T2, IKKε (Homo sapiens, UniProt Q14164); test: IKKe Biochemical Assay; settings: read-out: IKKε IC50
# T2 sequence (Q14164 1-716): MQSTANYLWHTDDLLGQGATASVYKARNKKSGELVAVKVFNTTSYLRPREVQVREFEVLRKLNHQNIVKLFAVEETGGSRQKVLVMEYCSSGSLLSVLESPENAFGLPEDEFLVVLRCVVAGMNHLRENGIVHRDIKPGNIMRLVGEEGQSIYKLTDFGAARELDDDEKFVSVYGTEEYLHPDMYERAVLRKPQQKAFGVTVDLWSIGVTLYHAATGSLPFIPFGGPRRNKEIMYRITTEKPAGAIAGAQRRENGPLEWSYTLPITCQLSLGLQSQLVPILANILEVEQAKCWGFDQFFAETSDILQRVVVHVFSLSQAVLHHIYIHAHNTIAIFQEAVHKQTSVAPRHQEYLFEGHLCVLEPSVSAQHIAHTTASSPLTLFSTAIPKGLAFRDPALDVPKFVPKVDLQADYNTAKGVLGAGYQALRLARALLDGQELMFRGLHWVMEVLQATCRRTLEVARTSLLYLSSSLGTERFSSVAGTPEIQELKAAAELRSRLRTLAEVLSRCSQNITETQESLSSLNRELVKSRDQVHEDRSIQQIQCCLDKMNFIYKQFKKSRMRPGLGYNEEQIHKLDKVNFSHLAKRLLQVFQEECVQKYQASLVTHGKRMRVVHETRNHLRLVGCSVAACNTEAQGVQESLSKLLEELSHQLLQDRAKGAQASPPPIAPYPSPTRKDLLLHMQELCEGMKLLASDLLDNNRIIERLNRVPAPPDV
# In short: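 Activity was measured as mobility-shift separation of phosphorylated from unphosphorylated substrate on a LabChip EZ Reader. Compound was titrated from 30 uM final in 10 points, 1:4 steps, with 1% DMSO, and enzyme plus substrate reacted 90 min at 25° C before stop buffer. Control wells held 10 uM staurosporine.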
SMILES,IC50 [1],IC50 (TBK1),IC50 (IKKε)
"COc1cc(C(=O)NCC(C)(C)CN(C)C)ccc1-c1cc2nccc(-c3ccc(NC4CCOCC4)c(C#N)c3)c2o1 [Compound 516, 4-{7-[3-Cyano-4-(tetrahydro-pyran-4-ylamino)-phenyl]-furo[3,2-b]pyridin-2-yl}-N-(3-dimethylamino-2,2-dimethyl-propyl)-3-methoxy-benzamide]",< 100 nM,< 100 nM,< 100 nM
COc1cc(C(=O)N2C[C@H]3C[C@@H]2CN3C)ccc1-c1cc2nccc(-c3ccc(NC4CCOCC4)c(C#N)c3)c2o1 [Compound 517],< 100 nM,< 100 nM,< 100 nM
COc1cc(C(=O)N2C3CCCC2CC3)ccc1-c1cc2nccc(-c3ccc(NC4CCOCC4)c(C#N)c3)c2o1 [Compound 519],100 to 1000 nM,< 100 nM,< 100 nM
COc1cc(C(=O)N(C)C)ccc1-c1cc2nccc(-c3ccc(NC4CCNC4)c(C#N)c3)c2o1 (stereo not drawn) [Compound 521],< 100 nM,< 100 nM,< 100 nM
